Source: patent US20160194299A1 (priority 2013, published 2016)
In brackets after ≈: the same amount, converted by molar mass. Where two headings read alike, the source gives them in different places.

Legend:
[1] = tested on: Mtb; assay: microbe, parasite or virus in culture; type: cell-based, Mycobacterium tuberculosis; conditions: Mycobacterium tuberculosis, read-out: MIC (I)
[2] = in vitro; conditions: African green monkey
[3] = tested on: Mtb; assay: microbe, parasite or virus in culture; type: cell-based, Mycobacterium tuberculosis; conditions: Mycobacterium tuberculosis, read-out: MIC (III)

SMILES | MIC [1] [µg/mL] | CC50 [2] [µg/mL] | MIC [3] [µg/mL]
C=CCOC(=O)NC(=O)c1ccsc1NC(=O)c1nc2cnccc2s1 [Compound 99] | < 1 | 25 to 50 (≈ 64.4 to 129 µM) | < 5
CCOC(=O)NC(=O)c1ccsc1NC(=O)c1nc2c(s1)CNCC2 [Compound 84] | 1 to 3 (≈ 2.63 to 7.89 µM) | > 50 | > 25
CCOC(=O)NC(=O)c1ccsc1NC(=O)C1COc2ccccc2O1 (stereo not drawn) [Compound 92] | > 3 | 25 to 50 (≈ 66.4 to 133 µM) | 5 to 25 (≈ 13.3 to 66.4 µM)
C=CCOC(=O)NC(=O)c1ccsc1NC(=O)c1nc2ccccc2s1 [Compound 293] | < 1 | < 25 | < 5
CCOC(=O)NC(=O)c1ccsc1NC(=O)C1COc2cc(OC)ccc2C1 (stereo not drawn) [Compound 70] | > 3 | > 50 | > 25
CCOC(=O)NC(=O)c1ccsc1NC(=O)c1ccc2scnc2c1 [Compound 43] | < 1 | > 50 | 5 to 25 (≈ 13.3 to 66.6 µM)
CCOC(=O)NC(=O)c1ccsc1NC(=O)c1nn(-c2ccccc2)nc1C [Compound 138] | > 3 | > 50 | > 25
CN(C)C(=O)NC(=O)c1ccsc1NC(=O)c1nc2cnccc2s1 [Compound 384] | > 3 | < 25 | > 25
CCOC(=O)NC(=O)c1ccsc1NC(=O)c1ccc2ncccc2c1 [Compound 89] | 1 to 3 (≈ 2.71 to 8.12 µM) | > 50 | 5 to 25 (≈ 13.5 to 67.7 µM)
O=C(NC(=O)c1ccsc1NC(=O)c1nc2cnccc2s1)OCc1ccccc1C(F)(F)F [Compound 295] | > 3 | < 25 | 5 to 25 (≈ 9.87 to 49.4 µM)
O=C(NC(=O)c1ccsc1NC(=O)c1cnc2ccnn2c1)OCc1ccccc1C(F)(F)F [Compound 289] | > 3 | < 25 | > 25
CCOC(=O)NC(=O)c1c(C)csc1NC(=O)c1ccc2scnc2c1 [Compound 146] | > 3 | > 50 | > 25
CCOC(=O)NC(=O)c1ccsc1NC(=O)c1cnc(O)cn1 [Compound 129] | > 3 | > 50 | > 25
CCOC(=O)NC(=O)c1ccsc1NC(=O)c1cnc2ccccc2c1 [Compound 264] | < 1 | < 25 | 5 to 25 (≈ 13.5 to 67.7 µM)
CCOC(=O)NC(=O)c1ccsc1NC(=O)c1sc(-c2ccncc2)nc1C [Compound 135] | > 3 | > 50 | > 25
O=C(NC(=O)c1ccsc1NC(=O)c1cnc2ccnn2c1)OCc1ccc(F)cc1 [Compound 284] | > 3 | 25 to 50 (≈ 56.9 to 114 µM) | > 25
CCOC(=O)NC(=O)c1cc(F)sc1NC(=O)c1nc2ncccc2s1 [Compound 389] | 1 to 3 (≈ 2.54 to 7.61 µM) | < 25 | > 25
CCOC(=O)NC(=O)c1ccsc1NC(=O)c1cnn2ccccc12 [Compound 265] | > 3 | 25 to 50 (≈ 69.8 to 140 µM) | > 25
CC(CN1CCOCC1)OC(=O)NC(=O)c1ccsc1NC(=O)c1nc2ccccc2s1 (stereo not drawn) [Compound 34] | > 3 | < 25 | 5 to 25 (≈ 10.5 to 52.7 µM)
CCOC(=O)NC(=O)c1ccsc1NC(=O)c1nc2c(N3CCN(C)CC3)ccnc2s1 [Compound 269] | < 1 | > 50 | 5 to 25 (≈ 10.5 to 52.7 µM)
O=C(NC(=O)c1ccsc1NC(=O)c1nc2cnccc2s1)OCc1ccccc1 [Compound 101] | < 1 | > 50 | 5 to 25 (≈ 11.4 to 57 µM)

SMILES | MIC [1] [µg/mL] | CC50 [2] [µg/mL] | MIC [3] [µg/mL]
CC(C)COC(=O)NC(=O)c1ccsc1NC(=O)c1cnc2ccnn2c1 [Compound 283] | 1 to 3 (≈ 2.58 to 7.74 µM) | 25 to 50 (≈ 64.5 to 129 µM) | > 25
CCOC(=O)NC(=O)c1cc(F)sc1NC(=O)c1cn2ccccc2n1 [Compound 338] | < 1 | 25 to 50 (≈ 66.4 to 133 µM) | > 25
CCOC(=O)NC(=O)c1ccsc1NC(=O)c1nc(S(C)(=O)=O)ncc1Cl [Compound 126] | > 3 | < 25 | > 25
CCC(OC(=O)NC(=O)c1ccsc1NC(=O)c1nc2ccccc2s1)c1ccccc1 (stereo not drawn) [Compound 307] | > 3 | < 25 | 5 to 25 (≈ 10.7 to 53.7 µM)
CC(C)OC(=O)NC(=O)c1cc(F)sc1NC(=O)c1ccn2nccc2c1 [Compound 346] | 1 to 3 (≈ 2.56 to 7.68 µM) | < 25 | > 25
CCOC(=O)NC(=O)c1ccsc1NC(=O)c1ccc2sc(N3CCOCC3)nc2c1 [Compound 58] | < 1 | > 50 | 5 to 25 (≈ 10.9 to 54.3 µM)
O=C(NC(=O)c1ccsc1NC(=O)c1cnc2ccnn2c1)OCc1ccccc1F [Compound 285] | > 3 | < 25 | > 25
CCOC(=O)NC(=O)c1ccsc1NC(=O)c1cnc2ccsc2c1 [Compound 394] | < 1 | < 25 | > 25
CCOC(=O)NC(=O)c1ccsc1NC(=O)c1cnc2c(N3CCOCC3)cnn2c1 [Compound 315] | < 1 | 25 to 50 (≈ 56.2 to 112 µM) | > 25
CCOC(=O)NC(=O)c1ccsc1NC(=O)c1cc2ccc(Cl)cc2s1 [Compound 333] | < 1 | 25 to 50 (≈ 61.1 to 122 µM) | 5 to 25 (≈ 12.2 to 61.1 µM)
CCOC(=O)NC(=O)c1ccsc1NC(=O)c1ccc2c(c1)CCCC2 [Compound 119] | > 3 | > 50 | > 25
O=C(NC(=O)c1ccsc1NC(=O)c1nc2cnccc2s1)OC1CCCC1 [Compound 380] | < 1 | < 25 | > 25
CC(C)(C)C(=O)Nc1cc(C(=O)Nc2sccc2C(=O)NC(=O)OCCF)ccn1 [Compound 29] | < 1 | 25 to 50 (≈ 57.3 to 115 µM) | > 25
CCOC(=O)NC(=O)c1ccsc1NC(=O)c1cccc2ncccc12 [Compound 139] | > 3 | > 50 | > 25
O=C(NC(=O)c1ccsc1NC(=O)c1nc2cnccc2s1)OCc1cccnc1 [Compound 301] | > 3 | 25 to 50 (≈ 56.9 to 114 µM) | > 25
CCOC(=O)NC(=O)c1ccsc1NC(=O)c1nc(C(F)(F)F)cs1 [Compound 144] | > 3 | > 50 | > 25
O=C(NC(=O)c1cc(F)sc1NC(=O)c1nc2ccccc2s1)OCCN1CCOCC1 [Compound 388] | < 1 | < 25 | > 25
CCOC(=O)NC(=O)c1ccsc1NC(=O)c1ccc2cccnc2n1 [Compound 69] | < 1 | < 25 | < 5
CCOC(=O)NC(=O)c1ccsc1NC(=O)c1ccc2ncoc2c1 [Compound 75] | > 3 | > 50 | > 25
CCOC(=O)NC(=O)c1ccsc1NC(=O)/C=C/c1nc2ccccc2s1 [Compound 365] | < 1 | < 25 | > 25
CCOC(=O)NC(=O)c1ccsc1NC(=O)c1cn2c(n1)sc1ccccc12 [Compound 292] | > 3 | > 50 | > 25

SMILES | MIC [1] [µg/mL] | CC50 [2] [µg/mL] | MIC [3] [µg/mL]
CCN1CCN(C(=O)c2ccsc2NC(=O)c2nc3ccccc3s2)CC1 [Compound 257] | > 3 | 25 to 50 (≈ 62.4 to 125 µM) | 5 to 25 (≈ 12.5 to 62.4 µM)
CCOC(=O)NC(=O)c1ccsc1NC(=O)c1sc(-c2cccnc2)nc1C [Compound 136] | > 3 | > 50 | > 25
CC(C)OC(=O)NC(=O)c1ccsc1NC(=O)c1ccc2nccnc2c1 [Compound 399] | < 1 | < 25 | > 25
CCOC(=O)NC(=O)c1ccsc1NC(=O)c1cnc2c(-c3ccc(OC)cc3)cnn2c1 [Compound 299] | < 1 | < 25 | > 25
CCC(CC)OC(=O)NC(=O)c1ccsc1NC(=O)c1cnc2ccnn2c1 [Compound 327] | 1 to 3 (≈ 2.49 to 7.47 µM) | < 25 | > 25
CCOC(=O)NC(=O)c1ccsc1NC(=O)c1nc2c(N3CCOCC3)ccnc2s1 [Compound 247] | < 1 | 25 to 50 (≈ 54.2 to 108 µM) | 5 to 25 (≈ 10.8 to 54.2 µM)
CCOC(=O)NC(=O)c1ccsc1NC(=O)c1ccc2nccn2c1 [Compound 73] | 1 to 3 (≈ 2.79 to 8.37 µM) | > 50 | > 25
CC(C)OC(=O)NC(=O)c1ccsc1NC(=O)c1nc2ccccc2s1 [Compound 41] | < 1 | < 25 | > 25
C#CCOC(=O)NC(=O)c1ccsc1NC(=O)c1nc2ccccc2s1 [Compound 303] | < 1 | < 25 | > 25
O=C(NC(=O)c1ccsc1NC(=O)c1nc2ccccc2s1)OCCC(F)(F)F [Compound 319] | < 1 | < 25 | > 25
CCOC(=O)NC(=O)c1ccsc1NC(=O)c1cn2cc(C)ccc2n1 [Compound 208] | > 3 | > 50 | > 25
CCOC(=O)NC(=O)c1ccsc1NC(=O)c1cnc2ccccc2n1 [Compound 87] | < 1 | > 50 | < 5
CCOC(=O)NC(=O)c1ccsc1NC(=O)c1cn2cccc(C#N)c2n1 [Compound 124] | > 3 | > 50 | < 5
CCOC(=O)NC(=O)c1ccsc1NC(=O)C1COc2ccc(OC)cc2C1 (stereo not drawn) [Compound 71] | 1 to 3 (≈ 2.47 to 7.42 µM) | > 50 | < 5
O=C(NC(=O)c1ccsc1NC(=O)c1nc2cccnc2s1)OCc1ccccc1C(F)(F)F [Compound 288] | > 3 | < 25 | 5 to 25 (≈ 9.87 to 49.4 µM)
CC(C)COC(=O)NC(=O)c1ccsc1NC(=O)c1nc2cnccc2s1 [Compound 282] | > 3 | 25 to 50 (≈ 61.8 to 124 µM) | > 25
O=C(NC(=O)c1ccsc1NC(=O)c1ccnc(NC(=O)N2CCOCC2)c1)OCCF [Compound 48] | < 1 | > 50 | > 25
CC(C)OC(=O)NC(=O)c1cc(F)sc1NC(=O)c1nc2ncccc2s1 [Compound 391] | < 1 | < 25 | > 25
CCOC(=O)NC(=O)c1ccsc1NC(=O)c1cc(NC(=O)C(C)(C)C)ncn1 [Compound 36] | 1 to 3 (≈ 2.38 to 7.15 µM) | > 50 | > 25
